Test results as given in ChEMBL document CHEMBL1201862, “PubChem BioAssay data set” (2004).
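Tested at 5 concentrations; 48 h exposure; 96-well plates; endpoints linearly interpolated, else capped at highest concentration. At the GI50, growth is halved.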 Activity calls are given as the source filed them. Cut-off read from the data, not from the text of the source: active = GI50 up to about 1.1 µM and inactive = higher.

Tests used:
Assay in all cases: growth of human tumour cells (NCI), 48 h
DLD-1 = tested on: DLD-1
IGROV-1 = tested on: IGROV-1
HOP-92 = tested on: HOP-92
HCT-116 = tested on: HCT-116
NCI/ADR-RES = tested on: NCI/ADR-RES
SK-MEL-28 = tested on: SK-MEL-28
SNB-19 = tested on: SNB-19
M14 = tested on: M14
SF-295 = tested on: SF-295
SW-620 = tested on: SW-620
COLO 205 = tested on: COLO 205
Hs-578T = tested on: Hs-578T
SNB-75 = tested on: SNB-75
NCI-H226 = tested on: NCI-H226
SK-OV-3 = tested on: SK-OV-3
MDA-MB-231 = tested on: MDA-MB-231
SK-MEL-5 = tested on: SK-MEL-5
CAKI-1 = tested on: CAKI-1
UACC-257 = tested on: UACC-257
SF-268 = tested on: SF-268
OVCAR-8 = tested on: OVCAR-8
HOP-62 = tested on: HOP-62
ACHN = tested on: ACHN
A549 = tested on: A549
UACC-62 = tested on: UACC-62
HCT-15 = tested on: HCT-15
NCI-H23 = tested on: NCI-H23
U-251 = tested on: U-251
KM-20L2 = tested on: KM-20L2
TK-10 = tested on: TK-10
NCI-H522 = tested on: NCI-H522
786-0 = tested on: 786-0
HL-60 = tested on: HL-60
SN12C = tested on: SN12C
LXFL 529 = tested on: LXFL 529
OVCAR-4 = tested on: OVCAR-4
Malme-3M = tested on: Malme-3M
MDA-MB-435 = tested on: MDA-MB-435
RXF 631 = tested on: RXF 631
RXF 393 = tested on: RXF 393
HCC 2998 = tested on: HCC 2998
KM12 = tested on: KM12
PC-3 = tested on: PC-3
NCI-H460 = tested on: NCI-H460
SR = tested on: SR
SF-539 = tested on: SF-539
MDA-N = tested on: MDA-N
HOP-18 = tested on: HOP-18
K562 = tested on: K562
MOLT-4 = tested on: MOLT-4
DU-145 = tested on: DU-145
CCRF-CEM = tested on: CCRF-CEM
DMS-273 = tested on: DMS-273
RPMI-8226 = tested on: RPMI-8226
OVCAR-5 = tested on: OVCAR-5
MCF7 = tested on: MCF7
HT-29 = tested on: HT-29
A498 = tested on: A498
UO-31 = tested on: UO-31
T47D = tested on: T47D
EKVX = tested on: EKVX
SNB-78 = tested on: SNB-78
BT-549 = tested on: BT-549
LOX IMVI = tested on: LOX IMVI
OVCAR-3 = tested on: OVCAR-3
M19-MEL = tested on: M19-MEL
DMS-114 = tested on: DMS-114
XF498 = tested on: XF498
SK-MEL-2 = tested on: SK-MEL-2

COc1cccc2c1C(=O)c1c(O)c3c(c(O)c1C2=O)C[C@@](O)(C(=O)CO)C[C@@H]3OC1CC(N2CCOCC2C#N)C(O)C(C)O1 (stereo partly specified)
GI50 (DLD-1): 2.26e-05 µM (active)
GI50 (IGROV-1): 8.57e-05 µM (active)
GI50 (HOP-92): 9.53e-05 µM (active)
GI50 (HCT-116): 2.71e-05 µM (active)
GI50 (NCI/ADR-RES): 0.0536 nM (active)
GI50 (SK-MEL-28): 9.73e-05 µM (active)
GI50 (SNB-19): 3.52e-05 µM (active)
GI50 (M14): 5.42e-05 µM (active)
GI50 (SF-295): 1.82e-05 µM (active)
GI50 (SW-620): 7.23e-05 µM (active)
GI50 (COLO 205): 0.000136 µM (active)
GI50 (Hs-578T): 0.0573 nM (active)
GI50 (SNB-75): 1.37e-05 µM (active)
GI50 (NCI-H226): 1.46e-05 µM (active)
GI50 (SK-OV-3): 0.000124 µM (active)
GI50 (MDA-MB-231): 0.00011 µM (active)
GI50 (SK-MEL-5): 3.72e-05 µM (active)
GI50 (CAKI-1): 3.53e-05 µM (active)
GI50 (UACC-257): 5.97e-05 µM (active)
GI50 (SF-268): 3.82e-05 µM (active)
GI50 (OVCAR-8): 5.18e-05 µM (active)
GI50 (HOP-62): 2.32e-05 µM (active)
GI50 (ACHN): 3.27e-05 µM (active)
GI50 (A549): 4.26e-05 µM (active)
GI50 (UACC-62): 9.98e-06 µM (active)
GI50 (HCT-15): 4.51e-05 µM
GI50 (NCI-H23): 2.45e-05 µM (active)
GI50 (U-251): 3.01e-05 µM (active)
GI50 (KM-20L2): 0.0025 µM (active)
GI50 (TK-10): 0.000149 µM (active)
GI50 (NCI-H522): 3.05e-05 µM (active)
GI50 (786-0): 0.001 µM (active)
GI50 (HL-60): 2.02e-05 µM (active)
GI50 (SN12C): 2.14e-05 µM (active)
GI50 (LXFL 529): 0.001 µM (active)
GI50 (OVCAR-4): 2.18e-05 µM (active)
GI50 (Malme-3M): 0.0002 µM (active)
GI50 (MDA-MB-435): 0.074 nM (active)
GI50 (RXF 631): 8.24e-05 µM (active)
GI50 (RXF 393): 1.91e-05 µM (active)
GI50 (HCC 2998): 5.37e-05 µM (active)
GI50 (KM12): 2.55e-05 µM (active)
GI50 (PC-3): 0.000107 µM (active)
GI50 (NCI-H460): 8.17e-06 µM (active)
GI50 (SR): 1.27e-05 µM (active)
GI50 (SF-539): 2.41e-05 µM (active)
GI50 (MDA-N): 0.0908 nM (active)
GI50 (HOP-18): 0.0025 µM (active)
GI50 (K562): 2.52e-05 µM (active)
GI50 (MOLT-4): 1.83e-05 µM (active)
GI50 (DU-145): 0.0415 nM (active)
GI50 (CCRF-CEM): 1.94e-05 µM (active)
GI50 (DMS-273): 1.93e-05 µM (active)
GI50 (RPMI-8226): 3.01e-05 µM (active)
GI50 (OVCAR-5): 4.98e-05 µM (active)
GI50 (MCF7): 0.0025 µM (active)
GI50 (HT-29): 2.07e-05 µM (active)
GI50 (A498): 2.58e-05 µM (active)
GI50 (UO-31): 5.52e-05 µM (active)
GI50 (T47D): 0.000102 µM (active)
GI50 (EKVX): 0.000227 µM (active)
GI50 (SNB-78): 0.0025 µM (active)
GI50 (BT-549): 0.0539 nM (active)
GI50 (LOX IMVI): 0.0025 µM (active)
GI50 (OVCAR-3): 2.27e-05 µM (active)

COC(=O)C1=C(c2cc(OC)c(OC)c(OC)c2)OC(c2cc(OC)c(OC)c(OC)c2)C1COC(C)=O (stereo unspecified)
GI50 (DLD-1): 26.2 µM (inactive)
GI50 (IGROV-1): 54.1 µM (inactive)
GI50 (HOP-92): 10.3 µM (inactive)
GI50 (HCT-116): 30.4 µM (inactive)
GI50 (SK-MEL-28): > 100 µM (inactive)
GI50 (SNB-19): > 100 µM (inactive)
GI50 (M14): 41 µM (inactive)
GI50 (SF-295): 45.2 µM (inactive)
GI50 (SW-620): 87.5 µM (inactive)
GI50 (COLO 205): 18.2 µM (inactive)
GI50 (SNB-75): 74.6 µM (inactive)
GI50 (NCI-H226): 46.1 µM (inactive)
GI50 (SK-OV-3): 44.8 µM (inactive)
GI50 (SK-MEL-5): 29.4 µM (inactive)
GI50 (CAKI-1): > 100 µM (inactive)
GI50 (UACC-257): 95.7 µM (inactive)
GI50 (SF-268): > 100 µM (inactive)
GI50 (OVCAR-8): 59.7 µM (inactive)
GI50 (HOP-62): 36.6 µM (inactive)
GI50 (ACHN): 30.1 µM (inactive)
GI50 (A549): 51.4 µM (inactive)
GI50 (UACC-62): 30.5 µM (inactive)
GI50 (HCT-15): 26.9 µM
GI50 (M19-MEL): 32.1 µM (inactive)
GI50 (NCI-H23): 33.7 µM (inactive)
GI50 (U-251): 51.6 µM (inactive)
GI50 (DMS-114): 34.7 µM (inactive)
GI50 (KM-20L2): 71.6 µM (inactive)
GI50 (TK-10): 42.4 µM (inactive)
GI50 (NCI-H522): 16.7 µM (inactive)
GI50 (786-0): 26.1 µM (inactive)
GI50 (HL-60): 10.3 µM (inactive)
GI50 (SN12C): 85.1 µM (inactive)
GI50 (LXFL 529): 34.4 µM (inactive)
GI50 (OVCAR-4): 29.6 µM (inactive)
GI50 (Malme-3M): > 100 µM (inactive)
GI50 (RXF 631): 17.4 µM (inactive)
GI50 (RXF 393): 40.6 µM (inactive)
GI50 (HCC 2998): 50.9 µM (inactive)
GI50 (KM12): 51.8 µM (inactive)
GI50 (NCI-H460): 36.6 µM (inactive)
GI50 (SR): 16.7 µM (inactive)
GI50 (SF-539): > 100 µM (inactive)
GI50 (K562): 24 µM (inactive)
GI50 (XF498): 32.4 µM (inactive)
GI50 (MOLT-4): 20.8 µM (inactive)
GI50 (CCRF-CEM): 41.8 µM (inactive)
GI50 (DMS-273): 25.6 µM (inactive)
GI50 (RPMI-8226): 29.1 µM (inactive)
GI50 (OVCAR-5): 18.1 µM (inactive)
GI50 (HT-29): 35.5 µM (inactive)
GI50 (A498): 51.5 µM (inactive)
GI50 (UO-31): 27.2 µM (inactive)
GI50 (EKVX): > 100 µM (inactive)
GI50 (SNB-78): 45.7 µM (inactive)
GI50 (LOX IMVI): 20.8 µM (inactive)
GI50 (OVCAR-3): 33.7 µM (inactive)

CCOP(=O)(OCC)C1CC(C)OC1=O (stereo unspecified)
GI50 (DLD-1): > 100 µM (inactive)
GI50 (IGROV-1): > 100 µM (inactive)
GI50 (SK-MEL-2): > 100 µM (inactive)
GI50 (HCT-116): > 100 µM (inactive)
GI50 (SK-MEL-28): > 100 µM (inactive)
GI50 (SNB-19): > 100 µM (inactive)
GI50 (M14): > 100 µM (inactive)
GI50 (SF-295): > 100 µM (inactive)
GI50 (SW-620): > 100 µM (inactive)
GI50 (COLO 205): > 100 µM (inactive)
GI50 (SNB-75): > 100 µM (inactive)
GI50 (SK-OV-3): > 100 µM (inactive)
GI50 (SK-MEL-5): > 100 µM (inactive)
GI50 (CAKI-1): > 100 µM (inactive)
GI50 (UACC-257): > 100 µM (inactive)
GI50 (SF-268): > 100 µM (inactive)
GI50 (OVCAR-8): > 100 µM (inactive)
GI50 (HOP-62): > 100 µM (inactive)
GI50 (ACHN): > 100 µM (inactive)
GI50 (A549): > 100 µM (inactive)
GI50 (UACC-62): > 100 µM (inactive)
GI50 (HCT-15): > 100 µM
GI50 (M19-MEL): > 100 µM (inactive)
GI50 (NCI-H23): > 100 µM (inactive)
GI50 (U-251): > 100 µM (inactive)
GI50 (DMS-114): > 100 µM (inactive)
GI50 (KM-20L2): > 100 µM (inactive)
GI50 (TK-10): > 100 µM (inactive)
GI50 (786-0): > 100 µM (inactive)
GI50 (HL-60): > 100 µM (inactive)
GI50 (SN12C): > 100 µM (inactive)
GI50 (LXFL 529): > 100 µM (inactive)
GI50 (OVCAR-4): > 100 µM (inactive)
GI50 (Malme-3M): > 100 µM (inactive)
GI50 (RXF 631): > 100 µM (inactive)
GI50 (RXF 393): > 100 µM (inactive)
GI50 (HCC 2998): > 100 µM (inactive)
GI50 (KM12): > 100 µM (inactive)
GI50 (NCI-H460): > 100 µM (inactive)
GI50 (SF-539): > 100 µM (inactive)
GI50 (K562): > 100 µM (inactive)
GI50 (XF498): > 100 µM (inactive)
GI50 (MOLT-4): > 100 µM (inactive)
GI50 (CCRF-CEM): > 100 µM (inactive)
GI50 (DMS-273): > 100 µM (inactive)
GI50 (RPMI-8226): > 100 µM (inactive)
GI50 (OVCAR-5): > 100 µM (inactive)
GI50 (HT-29): > 100 µM (inactive)
GI50 (A498): > 100 µM (inactive)
GI50 (UO-31): > 100 µM (inactive)
GI50 (EKVX): > 100 µM (inactive)
GI50 (SNB-78): > 100 µM (inactive)
GI50 (LOX IMVI): > 100 µM (inactive)
GI50 (OVCAR-3): > 100 µM (inactive)
